The data set in a line: Single-dose pharmacokinetics after IV bolus administration of EK-ECP. In kind it is in vivo, male Sprague–Dawley rats. The conditions noted are these: IV bolus 10 mg/kg EK-ECP; for T1/2 (terminal half-life) / half-life / AUC(0-t) / Vd / AUC(0-inf) / MRT last / C0: mean (CV); for T1/2 (terminal half-life) / half-life / AUC(0-t) / Vd: 10 mg/kg; for Tlast: median (minimum-maximum); for half-life / AUC(0-t) / Vd / AUC(0-inf) / MRT last / clearance / C0: male, Sprague-Dawley, rat; for half-life / AUC(0-t) / Vd: iv; for clearance: read-out: Mean clearance (Cl) (converted). As for the experimental part:
EK-ECP was administered to male Sprague–Dawley rats by either IV bolus (Group 1, 10 mg/kg) or oral gavage (Groups 2, 3 or 4, at 10, 100 or 1000 mg/kg, respectively) administration. Blood collection intervals were pre dose (0), and 0.25, 0.5, 1, 2, 4, 6, 8, 12, 24 and 36 h post dose. Plasma samples were analyzed for concentrations of 8,8′-bieckol, dieckol, and PFF-A; all pre-dose sample results were less than the lower limit of quantitation (LLOQ < 1 ng/mL). The time profiles of the plasma concentrations of 8,8′-bieckol, dieckol, and PFF-A in individual animals are illustrated in Figure 4. The mean pharmacokinetic parameters and corresponding coefficient of variation (CV) following IV administration of 10 mg/kg EK-ECP to male rats are illustrated in Table 1. Those following oral administrations of 10, 100 and 1000 mg/kg EK-ECP to male rats are illustrated in Table 2.
Total of 20 male CD® [Crl:CD®(SD)] rats (approximately 11.5 weeks of age) obtained from Charles River Laboratories (Portage, MI, USA) were used in our study. These included five rats with both jugular and femoral vein cannulations, and 15 rats with jugular vein cannulations. Of the 20 animals received, 16 male rats were placed in the study, comprising four rats with both jugular and femoral vein cannulations, and 12 rats with jugular vein cannulations. The rats were housed in the Mattawan facility of MPI Research Inc (currently Charles River Laboratories, Mattawan, MI, USA). Animal welfare for this study was in compliance with the U.S. Department of Agriculture’s (USDA) Animal Welfare Act (9 CFR Parts 1, 2 and 3). This facility maintained an animal welfare assurance statement with the National Institutes of Health Office of Laboratory Animal Welfare. All procedures were approved before the study by the institutional animal care utilization committee. Animals were individually housed and fed a basal diet of Lab Diet Certified Rodent Diet #5002, PMI Nutrition International, Inc. Food and water was available ad libitum except during fasting periods, when food was withheld, and during any required restraint periods, when both food and water were withheld. Animal rooms were maintained at (20 ± 2) °C and (50 ± 20)% relative humidity with a 12 h light/dark cycle throughout the study.
For intravenous administration, EK-ECP was dissolved in 70/25/5 (v/v) phosphate-buffered saline (PBS)/propylene glycol/ethanol (pH 5.1 final concentration of 2 mg/mL) and stabilized at room temperature for 24 h. For oral administration, after an amount of EK-ECP appropriate to the final targeted formulation concentrations was weighed and placed in a bottle, a small amount of the vehicle (water for injection) was added and mixed using a vortex mixer and heated to between 60 to 70 °C until homogeneously suspended. Additional amounts of the vehicle were gradually added to yield the targeted EK-ECP concentrations (1, 10, and 100 mg/mL). Dosing occurred within 4 h after preparation completion. The individual constituent doses of dieckol, 8,8′-bieckol, and PFF-A in each dosing formulation were analyzed by RP-HPLC followed by interpolation of the corresponding area% to the calibration curve prepared with known concentrations of isolated standards. The animals were fasted for a minimum of 4 h prior to dosing and through the first 4 h of blood sample collection. Each animal in Group 1 received a single intravenous (IV) dose of the 10 mg/kg EK-ECP. The intravenous doses were administered as a slow bolus injection over 5 min through the femoral vein cannula. The cannula was flushed with approximately 0.3 mL of sterile 0.9% sodium chloride for injection, USP, immediately following dosing. Each animal in Groups 2, 3 and 4 received a single oral (PO) gavage dose of the appropriate test article formulation, as outlined Table 3. Oral gavage dosing formulations were continuously stirred throughout dosing. […]

Setting [1] is: plasma, ln(2)·MRTlast, read-out: Effective T1/2 (converted).
The mark [2] stands for this setting: plasma, read-out: T1/2 (terminal half-life) (converted).

Read-outs that look alike come from different tables or passages of the source. Marks after values point to notes of the source that are not given here.

In the case of `Oc1cc(O)cc(Oc2c(O)cc(O)c3c2Oc2c(O)cc4oc5c(Oc6cc(O)cc(O)c6)c(O)cc(O)c5c4c2O3)c1` [PFF-A, phlorofucofuroeckol-A], the “plasma concentrations quantifiable up to” value is recorded as 2 h, the “T1/2 (terminal half-life)” value was 0.731 (4) ^c h and the Tlast is 2 (1–2) h. In addition, the half-life under setting [1] is 0.36 h. The AUC(0-t) (plasma, read-out: AUC(0–24h)) is 9.03 ng·h/mL. For the same compound, where the note is “plasma, read-out: AUCTlast”, the AUC(0-t) was 7.81 ng·h/mL. The half-life under setting [2] is about 0.731 h. In addition, under “plasma, read-out: Vss”, the Vd is 77.6 L/kg. The Vd (plasma, read-out: Vz) worked out at 89.2 L/kg. Moreover, for the setting “plasma”, the total exposure AUC(0-inf) came out at 10.1 ng·h/mL, the MRT last is 0.52 h, the clearance was 1400 mL/min/kg and the C0 was determined as 12.8 ng/mL.
For `Oc1cc(O)cc(Oc2c(O)cc(O)c3c2Oc2c(cc(O)c(-c4c(O)cc5c(c4O)Oc4c(Oc6cc(O)cc(O)c6)c(O)cc(O)c4O5)c2O)O3)c1` [8,8′-bieckol], the “plasma concentrations quantifiable up to” value is recorded as 36 h, the “T1/2 (terminal half-life)” value is recorded as 9.42 (9) h and the Tlast is listed as 36 (36–36) h. Further, under “in vivo, ln(2)·MRTlast, read-out: Effective T1/2 (converted)”, the half-life was 1.3 h. Further, under “in vivo, read-out: AUC(0–24h)”, the AUC(0-t) turned out to be 6540 ng·h/mL. The AUC(0-t) (in vivo, read-out: AUCTlast) was found to be 6620 ng·h/mL. Also, the half-life (in vivo, read-out: T1/2 (terminal half-life) (converted)) is about 9.42 h. Also, the Vd (in vivo, read-out: Vss) came out at 0.366 L/kg. Besides, for the setting “in vivo, read-out: Vz”, the Vd turned out to be 2.2 L/kg. Further, where the note is “in vivo”, the AUC(0-inf) is 6670 ng·h/mL, the MRT last was 1.88 h and the clearance was 2.7 mL/min/kg. Under “in vivo, plasma”, this compound returned a C0 of 7220 ng/mL.
With `Oc1cc(O)cc(Oc2c(O)cc(O)c3c2Oc2c(O)cc(Oc4c(O)cc(Oc5c(O)cc(O)c6c5Oc5c(O)cc(O)cc5O6)cc4O)cc2O3)c1` [dieckol], the “plasma concentrations quantifiable up to” value was found to be 36 h, the “T1/2 (terminal half-life)” value is reported as 11.9 (7) h and the Tlast is reported as 36 (36–36) h. Moreover, under setting [1], the half-life is 1.48 h. The AUC(0-t) (plasma, read-out: AUC(0–24h)) amounted to 5190 ng·h/mL. Moreover, the AUC(0-t) (plasma, read-out: AUCTlast) amounted to 5290 ng·h/mL. The half-life under setting [2] is about 11.9 h. Moreover, the Vd (plasma, read-out: Vss) was 0.57 L/kg. Moreover, the Vd (plasma, read-out: Vz) is 3.35 L/kg. Moreover, where the note is “plasma”, the AUC(0-inf) was found to be 5390 ng·h/mL, the mean residence time MRT last stood at 2.14 h, the clearance is 3.22 mL/min/kg and the C0 stood at 8890 ng/mL.

The values are drawn from publication PMC11595589, “A Pharmacokinetic and Bioavailability Study of Ecklonia cava Phlorotannins Following Intravenous and Oral Administration in Sprague–Dawley Rats” (Marine Drugs, 2024).
